Data reported in the supplement of paper PMC10307832.

Experiments:
Test in all cases: relative viability (nuclei count vs DMSO), 5 days (fraction); higher = more cells survive
[1] = compound: CCn1c(-c2nonc2N)nc2cnc(Oc3cccc(NC(=O)c4ccc(OCCN5CCOCC5)cc4)c3)cc21 + O=C(c1cc(Cc2n[nH]c(=O)c3ccccc23)ccc1F)N1CCN(C(=O)C2CC2)CC1 [Olaparib] (partner 8 µM)
Method in brief: (§1)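 Relative viability equals treated-well nuclei counts divided by vehicle-well nuclei counts. Counts came from 4× images of lung cancer cell lines grown in 1536-well plates for 5 days after pin-tool dosing on the day after seeding. Dosing used one drug alone or a fixed anchor-drug dose plus five library-drug doses (not always all listed) in √10 steps, and values are medians of duplicate plates.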

[2] = compound: CCn1c(-c2nonc2N)nc2cnc(Oc3cccc(NC(=O)c4ccc(OCCN5CCOCC5)cc4)c3)cc21 + Nc1nc2[nH]cc(CCc3ccc(C(=O)N[C@@H](CCC(=O)O)C(=O)O)cc3)c2c(=O)[nH]1 [Pemetrexed] (partner 0.2 µM)
Method in brief: as §1

[3] = compound: CCC1=CN=CN=C1N2CCN(CC2)CC3=NC4=C(N3)C=C(C=C4)C(F)(F)F + O=C(c1cc(Cc2n[nH]c(=O)c3ccccc23)ccc1F)N1CCN(C(=O)C2CC2)CC1 [Olaparib] (partner 8 µM)
Method in brief: as §1

[4] = compound: CCn1c(-c2nonc2N)nc2cnc(Oc3cccc(NC(=O)c4ccc(OCCN5CCOCC5)cc4)c3)cc21 + N=C(N)NC(=N)NCCc1ccccc1 [Phenformin] (partner 250 µM)
Method in brief: as §1

Cell Line	relative viability ([1]; first compound 0.04 µM)	relative viability ([1]; first compound 0.1265 µM)	relative viability ([1]; first compound 1.265 µM)	relative viability ([1]; first compound 4 µM)	relative viability ([2]; first compound 0.04 µM)	relative viability ([2]; first compound 0.1265 µM)	relative viability ([2]; first compound 1.265 µM)	relative viability ([2]; first compound 4 µM)	relative viability ([3]; first compound 0.04 µM)	relative viability ([3]; first compound 0.1265 µM)	relative viability ([3]; first compound 0.4 µM)	relative viability ([3]; first compound 1.265 µM)	relative viability ([3]; first compound 4 µM)	relative viability ([4]; first compound 0.04 µM)	relative viability ([4]; first compound 0.1265 µM)	relative viability ([4]; first compound 1.265 µM)	relative viability ([4]; first compound 4 µM)	relative viability ([1]; first compound 0.4 µM)	relative viability ([2]; first compound 0.4 µM)	relative viability ([4]; first compound 0.4 µM)
HCC-78	0.789	0.97	0.832	0.946	0.959	0.847	0.929	0.951	0.893	0.669	0.79	0.588	0.78	0.789	0.934	0.766	0.881	–	–	–
NCI-H3122	0.697	0.618	0.607	0.592	0.217	0.214	0.17	0.202	0.663	0.55	0.551	0.54	0.56	0.369	0.328	0.256	0.23	0.643	0.183	0.317
HOP-62	0.679	0.379	–	0.351	0.319	0.309	0.228	0.252	0.377	0.293	0.269	0.458	0.363	0.739	0.686	0.357	0.368	0.372	0.284	0.55
NCI-H661	0.693	0.757	0.579	0.489	0.922	0.994	0.74	0.513	0.802	0.719	0.767	0.661	0.738	0.258	0.253	0.23	0.195	0.749	0.893	0.203
NCI-H358	0.709	0.612	0.572	0.521	0.176	0.169	0.178	0.151	0.659	0.607	0.542	0.62	0.548	0.352	0.295	0.27	0.198	0.792	0.19	0.224
BEN	1.29	0.894	0.368	0.415	0.725	0.647	0.412	0.534	1.01	1.08	1.03	0.629	0.598	0.29	0.275	0.235	0.228	0.714	0.395	0.21
ChaGo-K-1	0.512	0.443	0.399	0.387	0.263	0.25	0.235	0.239	0.392	0.39	0.457	0.431	0.381	0.599	0.413	0.351	0.398	0.443	0.238	0.306
SK-MES-1	0.772	0.721	0.568	0.483	1.08	0.941	0.66	0.46	0.657	0.643	0.684	0.592	0.673	0.695	0.655	0.271	0.257	0.656	0.829	0.515
NCI-H1755	0.89	0.891	0.851	0.833	0.46	0.41	0.364	0.355	0.915	0.903	0.856	0.82	0.75	0.565	0.508	0.304	0.332	0.864	0.439	0.301
NCI-H2023	0.472	0.438	0.264	0.245	0.231	0.155	0.163	0.153	0.53	0.48	0.493	0.418	0.46	0.538	0.381	0.223	0.186	0.408	0.214	0.328
LC-2-ad	0.753	0.677	0.438	0.334	0.257	0.269	0.199	0.206	0.733	0.644	0.661	0.653	0.636	0.679	0.563	0.362	0.524	0.716	0.241	0.397
NCI-H1666	0.718	0.863	0.717	0.551	0.875	0.859	0.828	0.606	0.743	0.729	0.772	0.727	0.71	0.597	0.603	0.211	0.259	0.702	0.926	0.582
201T	0.859	0.933	0.812	0.769	0.356	0.347	0.263	0.303	0.816	0.831	0.866	0.814	0.853	0.471	0.44	0.368	0.396	0.817	0.343	0.342
NCI-H2009	0.605	0.566	0.486	0.334	0.916	0.817	0.607	0.492	0.647	0.649	0.632	0.578	0.594	0.493	0.357	0.192	0.224	0.549	0.757	0.284
NCI-H1395	0.384	0.41	0.374	0.352	0.961	0.825	0.519	0.434	0.459	0.482	0.461	–	0.469	0.517	0.45	0.305	0.365	0.401	0.736	0.453
NCI-H23	0.33	0.3	0.253	0.177	0.864	0.74	0.532	0.431	0.353	0.4	0.29	0.345	0.243	0.879	0.798	0.61	0.532	0.359	0.442	0.662
